Source: patent US20240368123A1, “AROMATIC RING-CONTAINING BIOLOGICAL ANTAGONIST, AND PREPARATION METHOD THEREFOR AND USE THEREOF” (SHANGHAI HANSOH BIOMEDICAL CO., LTD., priority 2021, published 2024)

Tested on: spontaneously hypertensive rat (SHR) model
Experiment: Pharmacodynamic evaluation on blood pressure in spontaneously hypertensive rats
Assay type: in vivo
Conditions: P.O, 30 mpk, 1-8 h after administration, P<0.05
Excerpt: This experiment used a spontaneously hypertensive rat (SHR) model to evaluate the pharmacodynamic effect of the test compounds on the blood pressure and heart rate of the model.
Kent Scientific CODA non-invasive blood pressure system.
Spontaneously hypertensive rats (SHR) were provided by Beijing Vital River Laboratory Animal Technology Co., Ltd., male, 150-200 g, 13-15 weeks old, 50 rats.
After animals arrived at the experimental facility, the animals were adapted to the animal facility for 5-7 days. 4.2 After the adaptation period, the animals were adapted to the tail oversleeve restrain for 3 days, and the tail oversleeve restrain was performed twice a day. After the last restrain adaptation, the basal blood pressure was measured, and the animals were randomly divided into groups according to the basal blood pressure. There was no significant difference between the average systolic blood pressure of animals in each group, and the number of animals in each group met the requirements of statistical testing and pharmacodynamic guidelines. 4.3 On the second day after grouping, the animals were administered according to experimental design and grouping (P.O, 5 mL/kg), and the systolic blood pressure (SBP), diastolic blood pressure (DBP), mean arterial pressure (MAP) and heart rate (HR) of the animals were measured before administration and at 1, 2, 4, 6, 8 and 24 h after administration using tail oversleeve method.
Statistical differences between groups were analyzed by Two-way ANOVA test. Among them, P<0.05 indicated a significant difference, and P<0.01 indicated an extremely significant difference.

[2H]C([2H])(OCC)c1cc(CN2C(=O)C3(CCCC3)N=C2CCCC)ccc1-c1ccccc1S(=O)(=O)Nc1noc(C)c1Cl [Example 49, 4′-((2-butyl-4-oxo-1,3-diazospiro[4.4]non-1-en-3-yl)methyl)-N-(4-chloro-5-methylisoxazol-3-yl)-2′-(ethoxydeuteriummethyl)-[1,1′-biphenyl]-2-sulfonamide]
blood pressure (systolic blood pressure, diastolic blood pressure, mean arterial pressure) compared with the vehicle group: significantly reduced blood pressure
